{"source": "ChEMBL document CHEMBL5143732", "about": "(J Med Chem, 2022)", "key": {"Candida albicans": {"tested_on": "Candida albicans", "assay": "Antifungal activity against Candida albicans assessed as inhibition of fungal growth measured after 48 hrs by CLSI based agar dilution method", "assay_type": "functional"}, "Cryptococcus neoformans": {"tested_on": "Cryptococcus neoformans", "assay": "Antifungal activity against Cryptococcus neoformans ATCC 32609 assessed as inhibition of fungal growth measured after 48 hrs by CLSI based agar dilution method", "assay_type": "functional"}, "Candida parapsilosis": {"tested_on": "Candida parapsilosis", "assay": "Antifungal activity against Candida parapsilosis assessed as inhibition of fungal growth measured after 48 hrs by CLSI based agar dilution method", "assay_type": "functional", "settings": "Lodderomyces parapsilosis"}, "Candida tropicalis": {"tested_on": "Candida tropicalis", "assay": "Antifungal activity against Candida tropicalis assessed as inhibition of fungal growth measured after 48 hrs by CLSI based agar dilution method", "assay_type": "functional"}, "[1]": {"assay": "Hemolytic activity in human RBC measured after 1 hr", "assay_type": "toxicity, cell-based, Erythrocyte", "settings": "red blood cells (erythrocytes)"}, "Pichia kudriavzevii [2]": {"tested_on": "Pichia kudriavzevii", "assay": "Antifungal activity against Candida krusei assessed as inhibition of fungal growth measured after 48 hrs by CLSI based agar dilution method", "assay_type": "functional"}, "Pichia kudriavzevii [3]": {"tested_on": "Pichia kudriavzevii", "assay": "Antifungal activity against Candida krusei ATCC 6258 assessed as inhibition of fungal growth measured after 48 hrs by CLSI based agar dilution method", "assay_type": "functional"}}}
{"smiles": "CNCC(=O)N[C@@H]1[C@H](O)[C@H](O[C@H]2/C=C/C=C/C=C/C=C/C=C/C=C/C=C/[C@H](C)[C@@H](O)[C@@H](C)[C@H](C)OC(=O)C[C@H](O)C[C@H](O)CC[C@@H](O)[C@H](O)C[C@H](O)C[C@]3(O)C[C@H](O)[C@@H](C(=O)N(C)CCO)[C@H](C2)O3)O[C@H](C)[C@H]1O", "values": [{"measurement": "MIC", "setting": "Candida albicans", "result": 0.5, "unit": "µg/mL"}, {"measurement": "MIC", "setting": "Cryptococcus neoformans", "result": 0.5, "unit": "µg/mL"}, {"measurement": "MIC", "setting": "Candida parapsilosis", "result": 1, "unit": "µg/mL"}, {"measurement": "MIC", "setting": "Candida tropicalis", "result": 1, "unit": "µg/mL"}, {"measurement": "HC50 at 1 h", "setting": "[1]", "result": 14.8, "unit": "µM"}, {"measurement": "MIC", "setting": "Pichia kudriavzevii [2]", "result": 1, "unit": "µg/mL"}, {"measurement": "MIC", "setting": "Pichia kudriavzevii [3]", "result": 2, "unit": "µg/mL"}]}
{"smiles": "CC(=O)NNC(=O)[C@H]1[C@@H]2C[C@@H](O[C@@H]3O[C@H](C)[C@@H](O)[C@H](N)[C@@H]3O)/C=C/C=C/C=C/C=C/C=C/C=C/C=C/[C@H](C)[C@@H](O)[C@@H](C)[C@H](C)OC(=O)C[C@H](O)C[C@H](O)CC[C@@H](O)[C@H](O)C[C@H](O)C[C@](O)(C[C@@H]1O)O2", "values": [{"measurement": "MIC", "setting": "Candida albicans", "result": 0.25, "unit": "µg/mL"}, {"measurement": "MIC", "setting": "Cryptococcus neoformans", "result": 0.125, "unit": "µg/mL"}, {"measurement": "MIC", "setting": "Candida parapsilosis", "result": 1, "unit": "µg/mL"}, {"measurement": "MIC", "setting": "Candida tropicalis", "result": 2, "unit": "µg/mL"}, {"measurement": "HC50 at 1 h", "setting": "[1]", "result": 5.61, "unit": "µM"}, {"measurement": "MIC", "setting": "Pichia kudriavzevii [2]", "result": 0.125, "unit": "µg/mL"}, {"measurement": "MIC", "setting": "Pichia kudriavzevii [3]", "result": 1, "unit": "µg/mL"}]}
{"smiles": "C[C@@H]1[C@H](O)[C@@H](C)/C=C/C=C/C=C/C=C/C=C/C=C/C=C/[C@H](O[C@@H]2O[C@H](C)[C@@H](O)[C@H](NC(=O)CN)[C@@H]2O)C[C@@H]2O[C@](O)(C[C@@H](O)C[C@@H](O)[C@H](O)CC[C@@H](O)C[C@@H](O)CC(=O)O[C@H]1C)C[C@H](O)[C@H]2C(=O)NCCCO", "values": [{"measurement": "MIC", "setting": "Candida albicans", "result": 0.5, "unit": "µg/mL"}, {"measurement": "MIC", "setting": "Cryptococcus neoformans", "result": 0.25, "unit": "µg/mL"}, {"measurement": "MIC", "setting": "Candida parapsilosis", "result": 0.5, "unit": "µg/mL"}, {"measurement": "MIC", "setting": "Candida tropicalis", "result": 2, "unit": "µg/mL"}, {"measurement": "HC50 at 1 h", "setting": "[1]", "result": 7.86, "unit": "µM"}, {"measurement": "MIC", "setting": "Pichia kudriavzevii [2]", "result": 0.25, "unit": "µg/mL"}, {"measurement": "MIC", "setting": "Pichia kudriavzevii [3]", "result": 0.25, "unit": "µg/mL"}]}
{"smiles": "COC(=O)NNC(=O)[C@H]1[C@@H]2C[C@@H](O[C@@H]3O[C@H](C)[C@@H](O)[C@H](NC(=O)CN)[C@@H]3O)/C=C/C=C/C=C/C=C/C=C/C=C/C=C/[C@H](C)[C@@H](O)[C@@H](C)[C@H](C)OC(=O)C[C@H](O)C[C@H](O)CC[C@@H](O)[C@H](O)C[C@H](O)C[C@](O)(C[C@@H]1O)O2", "values": [{"measurement": "MIC", "setting": "Candida albicans", "result": 0.06, "unit": "µg/mL"}, {"measurement": "MIC", "setting": "Cryptococcus neoformans", "result": 1.12, "unit": "µg/mL"}, {"measurement": "MIC", "setting": "Candida parapsilosis", "result": 2, "unit": "µg/mL"}, {"measurement": "MIC", "setting": "Candida tropicalis", "result": 0.25, "unit": "µg/mL"}, {"measurement": "HC50 at 1 h", "setting": "[1]", "result": 8.84, "unit": "µM"}, {"measurement": "MIC", "setting": "Pichia kudriavzevii [2]", "result": 0.125, "unit": "µg/mL"}, {"measurement": "MIC", "setting": "Pichia kudriavzevii [3]", "result": 0.5, "unit": "µg/mL"}]}
{"smiles": "CNCC(=O)N[C@@H]1[C@H](O)[C@H](O[C@H]2/C=C/C=C/C=C/C=C/C=C/C=C/C=C/[C@H](C)[C@@H](O)[C@@H](C)[C@H](C)OC(=O)C[C@H](O)C[C@H](O)CC[C@@H](O)[C@H](O)C[C@H](O)C[C@]3(O)C[C@H](O)[C@@H](C(=O)N4CCN(CC(C)(O)CO)CC4)[C@H](C2)O3)O[C@H](C)[C@H]1O", "note": "(stereo partly drawn)", "values": [{"measurement": "MIC", "setting": "Candida albicans", "result": 0.06, "unit": "µg/mL"}, {"measurement": "MIC", "setting": "Cryptococcus neoformans", "result": 0.5, "unit": "µg/mL"}, {"measurement": "MIC", "setting": "Candida parapsilosis", "result": 2, "unit": "µg/mL"}, {"measurement": "MIC", "setting": "Candida tropicalis", "result": 1, "unit": "µg/mL"}, {"measurement": "HC50 at 1 h", "setting": "[1]", "result": 20.6, "unit": "µM"}, {"measurement": "MIC", "setting": "Pichia kudriavzevii [2]", "result": 0.5, "unit": "µg/mL"}, {"measurement": "MIC", "setting": "Pichia kudriavzevii [3]", "result": 8, "unit": "µg/mL"}]}
{"smiles": "CNCC(=O)N[C@@H]1[C@H](O)[C@H](O[C@H]2/C=C/C=C/C=C/C=C/C=C/C=C/C=C/[C@H](C)[C@@H](O)[C@@H](C)[C@H](C)OC(=O)C[C@H](O)C[C@H](O)CC[C@@H](O)[C@H](O)C[C@H](O)C[C@]3(O)C[C@H](O)[C@@H](C(=O)N(C)CCCO)[C@H](C2)O3)O[C@H](C)[C@H]1O", "values": [{"measurement": "MIC", "setting": "Candida albicans", "result": 0.06, "unit": "µg/mL"}, {"measurement": "MIC", "setting": "Cryptococcus neoformans", "result": 1, "unit": "µg/mL"}, {"measurement": "MIC", "setting": "Candida parapsilosis", "result": 4, "unit": "µg/mL"}, {"measurement": "MIC", "setting": "Candida tropicalis", "result": 4, "unit": "µg/mL"}, {"measurement": "HC50 at 1 h", "setting": "[1]", "result": 9.52, "unit": "µM"}, {"measurement": "MIC", "setting": "Pichia kudriavzevii [2]", "result": 0.5, "unit": "µg/mL"}, {"measurement": "MIC", "setting": "Pichia kudriavzevii [3]", "result": 4, "unit": "µg/mL"}]}
{"smiles": "CNCC(=O)N[C@@H]1[C@H](O)[C@H](O[C@H]2/C=C/C=C/C=C/C=C/C=C/C=C/C=C/[C@H](C)[C@@H](O)[C@@H](C)[C@H](C)OC(=O)C[C@H](O)C[C@H](O)CC[C@@H](O)[C@H](O)C[C@H](O)C[C@]3(O)C[C@H](O)[C@@H](C(=O)N4CCN(CCCO)CC4)[C@H](C2)O3)O[C@H](C)[C@H]1O", "values": [{"measurement": "MIC", "setting": "Candida albicans", "result": 0.5, "unit": "µg/mL"}, {"measurement": "MIC", "setting": "Cryptococcus neoformans", "result": 0.125, "unit": "µg/mL"}, {"measurement": "MIC", "setting": "Candida parapsilosis", "result": 0.5, "unit": "µg/mL"}, {"measurement": "MIC", "setting": "Candida tropicalis", "result": 0.5, "unit": "µg/mL"}, {"measurement": "HC50 at 1 h", "setting": "[1]", "result": 19.5, "unit": "µM"}, {"measurement": "MIC", "setting": "Pichia kudriavzevii [2]", "result": 0.5, "unit": "µg/mL"}, {"measurement": "MIC", "setting": "Pichia kudriavzevii [3]", "result": 2, "unit": "µg/mL"}]}
{"smiles": "CC(=O)NNC(=O)[C@H]1[C@@H]2C[C@@H](O[C@@H]3O[C@H](C)[C@@H](O)[C@H](NC(=O)CN)[C@@H]3O)/C=C/C=C/C=C/C=C/C=C/C=C/C=C/[C@H](C)[C@@H](O)[C@@H](C)[C@H](C)OC(=O)C[C@H](O)C[C@H](O)CC[C@@H](O)[C@H](O)C[C@H](O)C[C@](O)(C[C@@H]1O)O2", "values": [{"measurement": "MIC", "setting": "Candida albicans", "result": 0.06, "unit": "µg/mL"}, {"measurement": "MIC", "setting": "Cryptococcus neoformans", "result": 0.125, "unit": "µg/mL"}, {"measurement": "MIC", "setting": "Candida parapsilosis", "result": 2, "unit": "µg/mL"}, {"measurement": "MIC", "setting": "Candida tropicalis", "result": 2, "unit": "µg/mL"}, {"measurement": "HC50 at 1 h", "setting": "[1]", "result": 6, "unit": "µM"}, {"measurement": "MIC", "setting": "Pichia kudriavzevii [2]", "result": 0.125, "unit": "µg/mL"}, {"measurement": "MIC", "setting": "Pichia kudriavzevii [3]", "result": 1, "unit": "µg/mL"}]}
{"smiles": "CNCC(=O)N[C@@H]1[C@H](O)[C@H](O[C@H]2/C=C/C=C/C=C/C=C/C=C/C=C/C=C/[C@H](C)[C@@H](O)[C@@H](C)[C@H](C)OC(=O)C[C@H](O)C[C@H](O)CC[C@@H](O)[C@H](O)C[C@H](O)C[C@]3(O)C[C@H](O)[C@@H](C(=O)N4CCN(CCO)CC4)[C@H](C2)O3)O[C@H](C)[C@H]1O", "values": [{"measurement": "MIC", "setting": "Candida albicans", "result": 0.125, "unit": "µg/mL"}, {"measurement": "MIC", "setting": "Cryptococcus neoformans", "result": 0.03, "unit": "µg/mL"}, {"measurement": "MIC", "setting": "Candida parapsilosis", "result": 0.5, "unit": "µg/mL"}, {"measurement": "MIC", "setting": "Candida tropicalis", "result": 0.5, "unit": "µg/mL"}, {"measurement": "HC50 at 1 h", "setting": "[1]", "result": 15.1, "unit": "µM"}, {"measurement": "MIC", "setting": "Pichia kudriavzevii [2]", "result": 0.25, "unit": "µg/mL"}, {"measurement": "MIC", "setting": "Pichia kudriavzevii [3]", "result": 2, "unit": "µg/mL"}]}
